Results on 51 molecules are retold here after US8354403B2, “Pyrrolidine derived beta 3 adrenergic receptor agonists” (Merck Sharp & Dohme Corp., priority 2009, dated 2013).

pEC50: −log10 of the molar value.

For the first assay, the target named is T1, human β3 adrenergic receptor (Homo sapiens, UniProt P13945).
T1 construct: expressed in transfected cells; host or cells: Chinese hamster ovary (CHO) cells, stably transfected
T1 sequence (P13945 whole entry): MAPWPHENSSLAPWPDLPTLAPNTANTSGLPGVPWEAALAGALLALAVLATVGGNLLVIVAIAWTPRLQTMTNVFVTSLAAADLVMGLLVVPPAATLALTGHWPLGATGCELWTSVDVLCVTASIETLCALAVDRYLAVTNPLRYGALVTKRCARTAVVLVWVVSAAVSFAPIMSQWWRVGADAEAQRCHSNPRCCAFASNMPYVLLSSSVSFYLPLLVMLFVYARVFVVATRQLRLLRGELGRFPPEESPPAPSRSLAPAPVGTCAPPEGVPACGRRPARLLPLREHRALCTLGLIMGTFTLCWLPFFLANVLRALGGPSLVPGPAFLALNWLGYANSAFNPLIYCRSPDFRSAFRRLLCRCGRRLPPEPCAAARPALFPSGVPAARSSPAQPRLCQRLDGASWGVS
Put plainly: Beta-3 agonist in vitro functional assay: cAMP production (LANCE TR-FRET) in CHO cells stably transfected with the cloned β3 receptor. Format: cell-based. The note with it: Human β3 agonist functional activity. As for the experimental part: Chinese hamster ovary (CHO) cells, stably transfected with the cloned β-adrenergic receptor (β1, β2 or β3) are harvested after 3 days of subculturing. Harvesting of cells is done with Enzyme-free Dissociation Media (Specialty Media). Cells are then counted and resuspended in assay buffer (Hank's Balanced salt solution supplemented with 5 mM HEPES, […]) containing a phosphodiesterase inhibitor (IBMX, 0.6 mM). The reaction is initiated by mixing 6,000 cells in 6 μL with 6 μL Alexa Fluor labeled cAMP antibody (LANCE™ kit) which is then added to an assay well containing 12 μL of compound (diluted in assay buffer to 2× final concentration). The reaction proceeds for 30 minutes at RT and is terminated by the addition of 24 ul detection buffer (LANCE™ kit). The assay plate is then incubated for 1 h at RT and time-resolved fluorescence measured on a Perkin Elmer Envision reader or equivalent. The unknown cAMP level is determined by comparing fluorescence levels to a cAMP standard curve.
The non-selective, full agonist β-adrenergic ligand isoproterenol is used at all three receptors to determine maximal stimulation. […] Data are analyzed using Microsoft Excel and Graphpad Prism or an internally developed data analysis software package.
On the technique in general: Changes in cAMP serve as a functional read-out for many G protein-coupled receptors.
In turn, `O=C(c1ccc(C[C@@H]2CC[C@H]([C@H](O)c3ccccc3)N2)cc1)N1CCc2c(O)noc2C1` [Example 54] had a pEC50 of 6.00 to 7.00.

The assay is the same for the next values; noted with them: Table 4; cAMP, CHO cells; read-out: Human β3 agonist functional activity.
As to `Cc1noc(C2CCN(C(=O)c3ccc(C[C@@H]4CC[C@H]([C@H](O)c5ccccc5)N4)cc3)C2)n1` (stereo partly drawn) [Example 11], the pEC50 is 6.00 to 7.00.

On to `CCOC(=O)C1CCCN(C(=O)c2ccc(C[C@@H]3CC[C@H]([C@H](O)c4ccccc4)N3)cc2)C1` (stereo partly drawn) [Example 31], for which the pEC50 was 7.00 to 8.00.

`O=C(c1ccc(C[C@@H]2CC[C@H]([C@H](O)c3ccccc3)N2)cc1)N1CC2CC(n3ncnn3)CC2C1` (stereo partly drawn) [Example 19]: the pEC50 was 7.00 to 8.00.

With `O=C(c1ccc(C[C@@H]2CC[C@H]([C@H](O)c3ccccc3)N2)cc1)N1CCCC(c2nc3ccccc3[nH]2)C1` (stereo partly drawn) [Example 34], the pEC50 was 6.00 to 7.00.

With `NC(=O)C1(F)CN(C(=O)c2ccc(C[C@@H]3CC[C@H]([C@H](O)c4ccccc4)N3)cc2)C1` [Example 4], the pEC50 was 6.00 to 7.00.

Regarding `C[C@H]1CN(C(=O)c2ccc(C[C@@H]3CC[C@H]([C@H](O)c4ccccc4)N3)cc2)CC[C@@H]1n1cccn1` [Example 62], the pEC50 was 6.00 to 7.00.

Turning to `O=C(c1ccc(C[C@@H]2CC[C@H]([C@H](O)c3ccccc3)N2)cc1)N1CC2CCNC2C1` (stereo partly drawn) [Example 24], the pEC50 was 6.00 to 7.00.

Take `O=C(c1ccc(C[C@@H]2CC[C@H]([C@H](O)c3cccnc3)N2)cc1)N1CCC2c3ccccc3OC2C1` (stereo partly drawn) [Example 57]: the pEC50 is 8.00 to 9.00.

Staying with this assay, now noted: Table 5; cAMP, CHO cells; read-out: Human β3 agonist functional activity.
For the molecule `O=C(c1ccc(C[C@@H]2CC[C@H]([C@H](O)c3ccccc3)N2)cc1)N1CCC(N2Cc3ccccc3NC2=O)CC1` [Example 72], the pEC50 is 6.00 to 7.00.

On to `O=C(c1ccc(C[C@@H]2CC[C@H]([C@H](O)c3ccccc3)N2)cc1)N1CCC(n2ccccc2=O)CC1` [Example 70], for which the pEC50 is 6.00 to 7.00.

Turning to `O=C(c1ccc(C[C@@H]2CC[C@H]([C@H](O)c3ccccc3)N2)cc1)N1CCC(S(=O)(=O)c2ccc(F)cc2)CC1` [Example 128], the pEC50 is 7.00 to 8.00.

Consider `O=C(c1ccc(C[C@@H]2CC[C@H]([C@H](O)c3ccccc3)N2)cc1)N1CCC(c2nc(-c3cnccn3)no2)CC1` [Example 83], for which the pEC50 was 6.00 to 7.00.

For the molecule `O=C(c1ccc(C[C@@H]2CC[C@H]([C@H](O)c3ccccc3)N2)cc1)N1CCC(n2c(=O)[nH]c3cc(Cl)ccc32)CC1` [Example 75], the pEC50 was 6.00 to 7.00.

For `N#Cc1ccc(S(=O)(=O)C2CCN(C(=O)c3ccc(C[C@@H]4CC[C@H]([C@H](O)c5ccccc5)N4)cc3)CC2)cc1` [Example 137], the pEC50 was 7.00 to 8.00.

As to `Cc1nc(C2CCN(C(=O)c3ccc(C[C@@H]4CC[C@H]([C@H](O)c5ccccc5)N4)cc3)CC2)ns1` [Example 89], the pEC50 was 6.00 to 7.00.

For the molecule `Cc1cncn1C1CCN(C(=O)c2ccc(C[C@@H]3CC[C@H]([C@H](O)c4cccnc4)N3)cc2)CC1` [Example 87], the pEC50 was 6.00 to 7.00.

Take `CS(=O)(=O)C1CCN(C(=O)c2ccc(C[C@@H]3CC[C@H]([C@H](O)c4ccccc4)N3)cc2)CC1` [Example 122]: the pEC50 is 7.00 to 8.00.

For `O=C(c1ccc(C[C@@H]2CC[C@H]([C@H](O)c3ccccc3)N2)cc1)N1CCC(N2C(=O)NC3CCCCC32)CC1` (stereo partly drawn) [Example 76], the pEC50 is 7.00 to 8.00.

Turning to `COC(=O)c1ccccc1C1CCN(C(=O)c2ccc(C[C@@H]3CC[C@H]([C@H](O)c4ccccc4)N3)cc2)CC1` [Example 111], the pEC50 is 7.00 to 8.00.

Take `O=C(c1ccc(C[C@@H]2CC[C@H]([C@H](O)c3ccccc3)N2)cc1)N1CCC(n2cc(-c3ccccc3)[nH]c2=O)CC1` [Example 84]: the pEC50 was 7.00 to 8.00.

Regarding `CCS(=O)(=O)C1CCN(C(=O)c2ccc(C[C@@H]3CC[C@H]([C@H](O)c4ccccc4)N3)cc2)CC1` [Example 124], the pEC50 is 8.00 to 9.00.

For `O=C(O)c1cc(OC2CCN(C(=O)c3ccc(C[C@@H]4CC[C@H]([C@H](O)c5ccccc5)N4)cc3)CC2)no1` [Example 160], the pEC50 is 6.00 to 7.00.

Regarding `O=C(c1ccc(C[C@@H]2CC[C@H]([C@H](O)c3ccccc3)N2)cc1)N1CCC(n2cnnn2)CC1` [Example 100], the pEC50 was 7.00 to 8.00.

Still in this assay, the particulars now being: Table 8; Beta-3 agonist in vitro functional assay; read-out: Human β3 agonist functional activity.
For the molecule `O=C(c1ccc(C[C@@H]2CC[C@H]([C@H](O)c3ccccc3)N2)cc1)N1CCC2(CCCN2)CC1` [Example 305], the pEC50 was 6.00 to 7.00.

On to `O=C1NC2(CCN(C(=O)c3ccc(C[C@@H]4CC[C@H]([C@H](O)c5ccccc5)N4)cc3)CC2)Oc2ccccc21` [Example 332], for which the pEC50 was 7.00 to 8.00.

As for `COc1cccc2c1C1(CCN(C(=O)c3ccc(C[C@@H]4CC[C@H]([C@H](O)c5cccnc5)N4)cc3)CC1)OC(=O)N2` [Example 331], the pEC50 is 7.00 to 8.00.

Consider `O=C(c1ccc(C[C@@H]2CC[C@H]([C@H](O)c3ccccc3)N2)cc1)N1CCC2(CC1)C(=O)Nc1ccccc12` [Example 299], for which the pEC50 is 7.00 to 8.00.

With `O=C1NC(=O)C2(CCN(C(=O)c3ccc(C[C@@H]4CC[C@H]([C@H](O)c5ccccc5)N4)cc3)CC2)N1` [Example 267], the pEC50 is 7.00 to 8.00.

As for `O=C(c1ccc(C[C@@H]2CC[C@H]([C@H](O)c3cccnc3)N2)cc1)N1CCC2(CC1)C(=O)NCN2c1ccccc1` [Example 259], the pEC50 is 8.00 to 9.00.

With `O=C1CC2(CCN(C(=O)c3ccc(C[C@@H]4CC[C@H]([C@H](O)c5ccccc5)N4)cc3)CC2)Oc2ccc(-c3nnn[nH]3)cc21` [Example 325], the pEC50 was 7.00 to 8.00.

Still in this assay, the particulars now being: Table 9; Beta-3 agonist in vitro functional assay; read-out: Human β3 agonist functional activity.
As to `C[C@@H](c1ccccn1)N1CCN(C(=O)c2ccc(C[C@@H]3CC[C@H]([C@H](O)c4ccccc4)N3)cc2)CC1` [Example 431], the pEC50 was 7.00 to 8.00.

As to `CCOC(=O)N1CCN(C(=O)c2ccc(C[C@@H]3CC[C@H]([C@H](O)c4ccccc4)N3)cc2)CC1` [Example 344], the pEC50 is 6.00 to 7.00.

As for `O=C(c1ccc(C[C@@H]2CC[C@H]([C@H](O)c3ccccc3)N2)cc1)N1CCN(c2ccccc2O)CC1` [Example 359], the pEC50 is 7.00 to 8.00.

In the case of `O=C(c1ccc(C[C@@H]2CC[C@H]([C@H](O)c3ccccc3)N2)cc1)N1CCN(Cc2nc3ccccc3s2)CC1` [Example 404], the pEC50 is 7.00 to 8.00.

For the molecule `O=C(c1ccc(C[C@@H]2CC[C@H]([C@H](O)c3ccccc3)N2)cc1)N1CCN(Cc2ccncn2)CC1` [Example 427], the pEC50 is 7.00 to 8.00.

As for `O=C(c1ccc(C[C@@H]2CC[C@H]([C@H](O)c3ccccc3)N2)cc1)N1CCN(Cc2ccon2)CC1` [Example 393], the pEC50 is 7.00 to 8.00.

`O=C(c1ccc(C[C@@H]2CC[C@H]([C@H](O)c3ccccc3)N2)cc1)N1CCN(c2ccncc2)CC1` [Example 356]: the pEC50 is 6.00 to 7.00.

Staying with this assay, now noted: Table 10; Beta-3 agonist in vitro functional assay; read-out: Human β3 agonist functional activity.
`CC(C(=O)N1CCC(O)C1)N1CCN(C(=O)c2ccc(C[C@@H]3CC[C@H]([C@H](O)c4ccccc4)N3)cc2)CC1` (stereo partly drawn) [Example 477]: the pEC50 is 6.00 to 7.00.

Consider `CC(C(=O)N1CCOCC1)N1CCN(C(=O)c2ccc(C[C@@H]3CC[C@H]([C@H](O)c4ccccc4)N3)cc2)CC1` (stereo partly drawn) [Example 499], for which the pEC50 is 6.00 to 7.00.

Take `CC(C(=O)N1CCCC2(CCC2)C1)N1CCN(C(=O)c2ccc(C[C@@H]3CC[C@H]([C@H](O)c4ccccc4)N3)cc2)CC1` (stereo partly drawn) [Example 496]: the pEC50 was 7.00 to 8.00.

In the case of `CC[C@@H](C)NC(=O)C(C)N1CCN(C(=O)c2ccc(C[C@@H]3CC[C@H]([C@H](O)c4ccccc4)N3)cc2)CC1` (stereo partly drawn) [Example 440], the pEC50 is 7.00 to 8.00.

Staying with this assay, now noted: Table 11; cAMP, CHO cells; read-out: Human β3 agonist functional activity.
As to `C[C@@H]1CN(Cc2ccccn2)CCN1C(=O)c1ccc(C[C@@H]2CC[C@H]([C@H](O)c3ccccc3)N2)cc1` [Example 529], the pEC50 is 6.00 to 7.00.

With `C[C@H]1CN(C(=O)c2ccc(C[C@@H]3CC[C@H]([C@H](O)c4ccccc4)N3)cc2)CCN1Cc1ccccn1` [Example 528], the pEC50 was 7.00 to 8.00.

For the molecule `C[C@H]1CN(C(=O)c2ccc(C[C@@H]3CC[C@H]([C@H](O)c4ccccc4)N3)cc2)CCN1Cc1n[nH]c2ccccc12` [Example 532], the pEC50 was 7.00 to 8.00.

The assay is the same for the next values; noted with them: Table 12; human β3 functional activity given as ranges; read-out: Human β3 agonist functional activity.
Take `O=C1OCCC1N1CCN(C(=O)c2ccc(CC3CCC(C(O)c4ccccc4)N3)cc2)CC1` (single isomer, unassigned) [Example 603]: the pEC50 was 8.00 to 9.00.

In the case of `CC1CC2(CCN(C(=O)c3ccc(CC4CCC(C(O)c5ccccc5)N4)cc3)CC2)C(=O)O1` (single isomer, unassigned) [Example 562], the pEC50 is 8.00 to 9.00.

Turning to `O=C(c1ccc(CC2CCC(C(O)c3cccnc3)N2)cc1)N1CCC2(CC1)C(=O)NCC2c1ccc(F)cc1` (single isomer, unassigned) [Example 555], the pEC50 is 8.00 to 9.00.

For `O=C(c1ccc(CC2CCC(C(O)c3ccccc3)N2)cc1)N1CCC2(CC1)C(=O)NCC2c1ccc(F)cc1` (single isomer, unassigned) [Example 558], the pEC50 is above 9.00.

With `O=C(c1ccc(CC2CCC(C(O)c3ccccc3)N2)cc1)N1CCC2(CC1)C(=O)NCC2c1ccc(F)cc1` (single isomer, unassigned) [Example 557], the pEC50 is 8.00 to 9.00.

Still in this assay, the particulars now being: given as a range; cAMP, CHO cells; read-out: human β3 functional activity.
Consider `O=C(c1ccc(C[C@@H]2CC[C@H]([C@H](O)c3ccccc3)N2)cc1)N1CCC(c2cscn2)CC1` [Example 66, (R)-phenyl[(2R,5S)-5-(4-{[4-(1,3-thiazol-4-yl)-piperidin-1-yl]carbonyl}benzyl)pyrrolidine-2-yl]methanol], for which the pEC50 was 7.00 to 8.00.
